# Experimental data: ChEMBL document CHEMBL1145401, “Design and synthesis of classical and nonclassical 6-arylthio-2,4-diamino-5-ethylpyrrolo[2,3-d]pyrimidines as antifolates” (J Med Chem, 2007)
# Key:
# [1] = target: T1, Dihydrofolate reductase (Mycobacterium avium, UniProt O30463)
# T1 sequence (O30463 whole entry): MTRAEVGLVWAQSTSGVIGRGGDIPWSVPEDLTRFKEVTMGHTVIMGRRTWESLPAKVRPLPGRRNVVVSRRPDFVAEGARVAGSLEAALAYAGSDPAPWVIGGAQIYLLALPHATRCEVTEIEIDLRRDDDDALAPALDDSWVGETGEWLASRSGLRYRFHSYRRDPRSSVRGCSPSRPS
# Description: Inhibition of Mycobacterium avium DHFR
# [2] = Inhibition of Escherichia coli DHFR
# [3] = Selectivity ratio of IC50 for human DHFR to IC50 for Escherichia coli DHFR
# [4] = Selectivity ratio of IC50 for rat liver DHFR to IC50 for Pneumocystis carinii DHFR
# [5] = Selectivity ratio of IC50 for rat liver DHFR to IC50 for Mycobacterium avium DHFR
# [6] = target: T2, Dihydrofolate reductase (Homo sapiens, UniProt P00374)
# [7] = target: T3, Dihydrofolate reductase (Pneumocystis carinii, UniProt P16184)
# T3 sequence (P16184 whole entry): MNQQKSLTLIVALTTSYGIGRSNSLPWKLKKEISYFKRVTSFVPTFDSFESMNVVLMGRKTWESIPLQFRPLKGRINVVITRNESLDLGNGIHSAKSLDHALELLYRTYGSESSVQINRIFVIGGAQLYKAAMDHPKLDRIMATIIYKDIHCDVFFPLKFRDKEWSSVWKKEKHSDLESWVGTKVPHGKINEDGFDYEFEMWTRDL
# Description: Inhibition of Pneumocystis carinii DHFR
# [8] = target: T4, Bifunctional dihydrofolate reductase-thymidylate synthase (Toxoplasma gondii, UniProt Q07422)
# T4 sequence (Q07422 whole entry): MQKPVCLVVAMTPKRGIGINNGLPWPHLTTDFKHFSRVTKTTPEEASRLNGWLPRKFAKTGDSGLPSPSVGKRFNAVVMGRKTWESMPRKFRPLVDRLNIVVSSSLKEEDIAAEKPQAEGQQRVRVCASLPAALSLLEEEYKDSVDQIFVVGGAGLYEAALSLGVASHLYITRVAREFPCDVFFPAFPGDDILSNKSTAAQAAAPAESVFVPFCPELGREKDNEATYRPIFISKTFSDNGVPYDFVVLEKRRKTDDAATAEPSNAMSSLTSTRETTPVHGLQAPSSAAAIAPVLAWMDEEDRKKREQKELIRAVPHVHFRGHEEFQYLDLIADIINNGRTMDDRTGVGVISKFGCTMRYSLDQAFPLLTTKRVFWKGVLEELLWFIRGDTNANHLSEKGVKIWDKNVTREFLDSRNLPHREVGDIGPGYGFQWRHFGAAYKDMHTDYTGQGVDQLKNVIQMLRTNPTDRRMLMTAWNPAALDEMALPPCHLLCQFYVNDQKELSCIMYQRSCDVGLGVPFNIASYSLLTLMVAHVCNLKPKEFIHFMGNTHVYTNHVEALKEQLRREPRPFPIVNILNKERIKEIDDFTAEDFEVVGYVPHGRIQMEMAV
# Description: Inhibition of Toxoplasma gondii DHFR
# [9] = target: T5, Dihydrofolate reductase (Rattus norvegicus, UniProt Q920D2)
# T5 sequence (Q920D2 whole entry): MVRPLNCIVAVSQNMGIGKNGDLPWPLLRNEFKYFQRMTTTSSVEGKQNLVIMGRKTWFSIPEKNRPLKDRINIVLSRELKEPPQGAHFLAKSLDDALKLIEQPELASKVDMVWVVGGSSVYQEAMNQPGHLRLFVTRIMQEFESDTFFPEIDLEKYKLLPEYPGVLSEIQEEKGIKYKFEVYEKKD
# Description: Inhibition of rat liver DHFR
# [10] = tested on: CCRF-CEM; test: Growth inhibition of human CCRF-CEM cells
# [11] = tested on: CCRF-CEM; test: Effect on growth of human CCRF-CEM cells at 5000 nM in presence of 10 uM deoxycytidine, 5 uM thymidine relative to control; assay type: functional
# [12] = tested on: CCRF-CEM; test: Effect on growth of human CCRF-CEM cells at 5000 nM in presence of 10 uM deoxycytidine, 10 uM hypoxanthine relative to control; assay type: functional
# [13] = tested on: CCRF-CEM; test: Effect on growth of human CCRF-CEM cells at 5000 nM in presence of 10 uM deoxycytidine, 5 uM thymidine and 10 uM hypoxanthine relative to control; assay type: functional
# [14] = tested on: CCRF-CEM; test: Cytotoxicity against CCRF-CEM cells; assay type: functional; details: Homo sapiens
# [15] = tested on: K562; test: Cytotoxicity against K562 cells; assay type: functional; details: Homo sapiens
# [16] = tested on: MOLT-4; test: Cytotoxicity against MOLT4 cells; assay type: functional; details: Homo sapiens
# [17] = tested on: SR; test: Cytotoxicity against SR cells; assay type: functional; details: Homo sapiens
# [18] = tested on: NCI-H460; test: Cytotoxicity against NCI-H460 cells; assay type: functional; details: Homo sapiens
# [19] = tested on: HCT-116; test: Cytotoxicity against HCT116 cells; assay type: functional; details: Homo sapiens
# [20] = tested on: HT-29; test: Cytotoxicity against HT29 cells; assay type: functional; details: Homo sapiens
# [21] = tested on: KM12; test: Cytotoxicity against KM12 cells; assay type: functional; details: Homo sapiens
# [22] = tested on: SW-620; test: Cytotoxicity against SW620 cells; assay type: functional; details: Homo sapiens
# [23] = tested on: SF-268; test: Cytotoxicity against SF268 cells; assay type: functional; details: Homo sapiens
# [24] = tested on: SF-295; test: Cytotoxicity against SF295 cells; assay type: functional; details: Homo sapiens
# [25] = tested on: SF-539; test: Cytotoxicity against SF539 cells; assay type: functional; details: Homo sapiens
# [26] = tested on: U-251; test: Cytotoxicity against U251 cells; assay type: functional; details: Homo sapiens
# [27] = tested on: LOX IMVI; test: Cytotoxicity against LOX IMVI cells; assay type: functional; details: Homo sapiens
# [28] = tested on: UACC-62; test: Cytotoxicity against UACC62 cells; assay type: functional; details: Homo sapiens
# [29] = tested on: OVCAR-8; test: Cytotoxicity against OVCAR8 cells; assay type: functional; details: Homo sapiens
# [30] = tested on: ACHN; test: Cytotoxicity against ACHN cells; assay type: functional; details: Homo sapiens
# [31] = tested on: CAKI-1; test: Cytotoxicity against CAKI1 cells; assay type: functional; details: Homo sapiens
# [32] = tested on: SN12C; test: Cytotoxicity against SN12C cells; assay type: functional; details: Homo sapiens
# [33] = tested on: UO-31; test: Cytotoxicity against UO31 cells; assay type: functional; details: Homo sapiens
# [34] = tested on: PC-3; test: Cytotoxicity against PC3 cells; assay type: functional; details: Homo sapiens
# [35] = tested on: DU-145; test: Cytotoxicity against DU145 cells; assay type: functional; details: Homo sapiens
# [36] = tested on: MCF7; test: Cytotoxicity against MCF7 cells; assay type: functional; details: Homo sapiens
# [37] = tested on: MDA-MB-435; test: Cytotoxicity against MDA-MB-435 cells; assay type: functional; details: Homo sapiens
# [38] = tested on: CCRF-CEM; test: Effect on growth of human CCRF-CEM cells at 5000 nM in presence of 10 uM deoxycytidine relative to control; assay type: functional
# [39] = tested on: CCRF-CEM; test: cells; details: Homo sapiens
# [40] = tested on: CCRF-CEM; test: cells; details: Homo sapiens; remark: listed apart in the source
# [41] = tested on: CCRF-CEM; test: cells; details: Homo sapiens; remark: listed apart in the source
# [42] = target: T2, Dihydrofolate reductase; test: Inhibition of human DHFR relative to control; details: concentration not given here
smiles,measurement,setting,value
COc1ccc(Sc2[nH]c3nc(N)nc(N)c3c2C)cc1,IC50,[1],690 nM
CCc1c(Sc2ccc([N+](=O)[O-])cc2)[nH]c2nc(N)nc(N)c12,IC50,[2],90 nM
same,Ratio IC50,[3],64.4
same,Ratio IC50,[4],0.4
same,Ratio IC50,[5],8.6
same,IC50,[6],5800 nM
same,IC50,[7],8680 nM
same,IC50,[8],320 nM
same,IC50,[1],370 nM
same,IC50,[9],3200 nM
CCc1c(Sc2ccccc2)[nH]c2nc(N)nc(N)c12,IC50,[6],18000 nM
same,IC50,[8],180 nM
CCc1c(Sc2ccc3ccccc3c2)[nH]c2nc(N)nc(N)c12,IC50,[6],6000 nM
same,IC50,[7],13900 nM
same,IC50,[8],5120 nM
same,IC50,[1],6520 nM
same,IC50,[9],8620 nM
CCc1c(Sc2ccc(Br)cc2)[nH]c2nc(N)nc(N)c12,IC50,[2],140 nM
same,Ratio IC50,[3],19.3
same,Ratio IC50,[4],0.4
same,Ratio IC50,[5],1.4
same,IC50,[6],2700 nM
same,IC50,[7],26600 nM
same,IC50,[8],11600 nM
same,IC50,[1],7400 nM
same,IC50,[9],10100 nM
CCc1c(Sc2cc(OC)ccc2OC)[nH]c2nc(N)nc(N)c12,IC50,[6],5800 nM
same,IC50,[8],120 nM
CCc1c(Sc2c(C)cccc2C)[nH]c2nc(N)nc(N)c12,IC50,[7],30200 nM
same,IC50,[8],7100 nM
same,IC50,[1],18400 nM
same,IC50,[9],10100 nM
CCc1c(Sc2ccc(C(=O)N[C@@H](CCC(=O)O)C(=O)O)cc2)[nH]c2nc(N)nc(N)c12,EC50,[10],68 nM
same,Activity,[11],15%
same,Activity,[12],12%
same,Activity,[13],74%
same,GI50,[14],17 nM
same,GI50,[15],12 nM
same,GI50,[16],480 nM
same,GI50,[17],< 10 nM
same,GI50,[18],180 nM
same,GI50,[19],23 nM
same,GI50,[20],98 nM
same,GI50,[21],56 nM
same,GI50,[22],26 nM
same,GI50,[23],430 nM
same,GI50,[24],660 nM
same,GI50,[25],240 nM
same,GI50,[26],530 nM
same,GI50,[27],44 nM
same,GI50,[28],880 nM
same,GI50,[29],740 nM
same,GI50,[30],440 nM
same,GI50,[31],170 nM
same,GI50,[32],600 nM
same,GI50,[33],300 nM
same,GI50,[34],400 nM
same,GI50,[35],370 nM
same,GI50,[36],170 nM
same,GI50,[37],660 nM
same,Activity,[38],12%
same,IC50,[6],66 nM
same,EC50,[39],5700 nM
same,EC50,[40],6700 nM
same,EC50,[41],200 nM
CCc1c(Sc2c(Cl)cccc2Cl)[nH]c2nc(N)nc(N)c12,inhibition,[42],30%
same,Ratio IC50,[4],0.2
same,Ratio IC50,[5],0.33
same,IC50,[6],> 28000 nM
same,IC50,[7],20600 nM
same,IC50,[8],3800 nM
same,IC50,[1],12000 nM
same,IC50,[9],4000 nM
CCc1c(Sc2ccc(OC)cc2)[nH]c2nc(N)nc(N)c12,IC50,[6],2900 nM
same,IC50,[7],53000 nM
same,IC50,[8],4620 nM
same,IC50,[1],3070 nM
same,IC50,[9],31800 nM
